This is an account of results in article PMC5395518, “Design, synthesis, and biological evaluation of the novel glycyrrhetinic acid-cinnamoyl hybrids as anti-tumor agents” (Chemistry Central Journal, 2016).

The subject of series [1] is Kunming mice. The series can be described thus: Acute toxicity by gavage in Kunming mice. Format: in vivo. From the text:
Forty healthy Kunming mice (weight 18–22 g) of both sexes were purchased from Beijing Vital River Laboratory Animal Technology Company Limited (Beijing, China). The mice were divided into two groups matched the same weight and size, along with the standard in our previous studies. In briefly, 20 mice were selected for blank control group, and the other 20 mice were for the treated group. All experiments followed the guidelines of “Regulation for the Administration of Affairs Concerning Experimental Animals” (State Council of China, 1988). All animals were placed in cages, fed with standard rodent chow and water ad libitum under a 12-h light–dark cycle. Before the experiments, the mice were deprived of food for 12 h but provided water freely. Then the treated group of both sexes were administered a single dose of 8a (0.3 mL/10 g) via gavage twice a day, which was prepared in advance in bean oil solution with the maximum suspended dose (50 mg/mL). The total administration of 8a was 3 g/kg during 8 h. And the blank control group were given bean oil by oral administration only. The mice’s general behavior was continuously noted in the first hour, intermittently observed in the next 4 h, and thereafter over a period of 24 h. Observations of the signs for toxicity and deaths were last for 14 days. The mortality response and behavior of toxic effects of mice were recorded.

In series [2] the test system is Hela cells. The series can be described thus: Annexin V-FITC/PI flow cytometric apoptosis assay. As to conditions: 72 h, control 7.5%. It counts as cell-based, human. The procedure: Hela cells were seeded in 12-well plates (5 × 10^4 cells/well), which were placed in a humidified atmosphere for 24 h at 37 °C with 5% CO2. After treated with different concentrations of 8a (5, 10, 20 μM) for 72 h, all cells were collected respectively with the right amount of trypsin (without EDTA) digestion. After added 1 mL cold PBS, the cells were gently suspended and centrifuged at 1000 rpm for 5 min. The harvested cells were suspended in 200 μL binding buffer which contained 10 μL Annexin V-FITC and PI. After avoided light reaction for 15 min, the cells were analyzed with a flow cytometry (BD, USA).

In series [3] the test system is Hela cells. As to the kind of experiment: MTT cytotoxicity assay, Hela. It counts as cell-based, human. From the text:
(§1) HepG2 (human hepatocellular carcinoma), Hela (human cervical cancer), HT-29 (human colon carcinoma), MDCK (Madin–Darby canine kidney), H9C2 (rat myocardial cells) and HY926 were purchased from the Chinese Academy of Medical Sciences and Peking Union Medical College. All of these cell lines were maintained in RPMI-1640 (DMEM) supplemented with 10% (v/v) fetal bovine serum (FBS) and 1% (v/v) penicillin/streptomycin (Thermo Technologies, New York, NY, USA) under a humidified atmosphere containing 5% CO2 at 37 °C. To provide stock solutions which were used to prepare various concentrations of treatment media, GA and hybrids were added a volume of DMSO.
(§2) The cytotoxicity of these compounds was evaluated on three human cancer cell lines (HepG2, HT-29, Hela) and three non-tumor cells lines (MDCK, HY926, H9C2) and MTT assay was performed to detect the cell proliferation. Simply, exponentially growing cells were cultured in 96-well plates (3 × 10^3 cells/well). And the plates were placed in a humidified atmosphere for 72 h at 37 °C with 5% CO2. After added MTT solution (5 mg/mL) 20 μL to each well, the plate was incubated for a further 4 h. Then the cell supernatant was removed and 150 μL DMSO was added. Finally, the absorbance was determined at wavelength of 490 nm with the ELISA. Wells without drugs were used to be blanks. The IC50 values were calculated using Logit-method. The following Eq. (1) was proposed to calculate the inhibitory rate of cell growth:1 %inhibition=1-Sample group OD/Control group OD×100%

Series [4] concerns H9C2 cells. As to the kind of experiment: MTT cytotoxicity assay, H9C2 (non-tumor). Format: cell-based, rat.
From the text: as §1, §2

The subject of series [5] is HepG2 cells. The series can be described thus: MTT cytotoxicity assay, HepG2. Format: cell-based, human. Conditions: 72 h, mean ± SD (n = 3).
From the text: as §1, §2

Series [6] relates to Hela cells. As to the kind of experiment: H33342 staining on Hela cells. Format: cell-based, human. Conditions: 5, 10, 20 μM, 72 h, with increase of concentration. As for the experimental part: H33342 staining was used to confirm whether the characteristic nuclear changes were associated with 8a in this assay. Hela cells were cultured in 12-well plates (5 × 10^4 cells/well), which were placed in a humidified atmosphere for 24 h at 37 °C with 5% CO2. And then each group was added 8a, making the final concentration of 0, 5, 10, 20 μM respectively. After 72 h, cell culture medium was discarded and the cells were washed twice with PBS. H33342 staining was then performed for 2 min and washed with water. In the end, the cells were observed and photographed under inverted phase-contrast microscope at a magnification of 200×.

Series [7] deals with MDCK cells. The series can be described thus: MTT cytotoxicity assay, MDCK (non-tumor). It counts as cell-based, canine.
From the text: as §1, §2

Series [8] concerns HT-29 cells. The series can be described thus: MTT cytotoxicity assay, HT-29. Format: cell-based, human. As to conditions: 72 h, mean ± SD (n = 3).
From the text: as §1, §2

Series [9] has as its system Hela cells. The series can be described thus: Giemsa staining on Hela cells. Format: cell-based, human. Conditions: 5, 10, 20 μM, 72 h, with increase of concentration. The procedure: Hela cells were seeded in 12-well plates (5 × 10^3 cells/well), and then they were cultured for 24 h at 37 °C with 5% CO2. After that each group was added 8a, making the final concentration of 0, 5, 10, 20 μM respectively. After 72 h, the cell supernatant was removed and the cells were cleaned with PBS twice, then kept in PBS/ethanol (1:1) for 2 min and fixed with cold ethanol for 10 min. After discarding ethanol, the cells were stained with Giemsa (Giemsa, Molecular Probes/Invitrogen Life Technologies, Carlsbad, CA, USA) stained for 5 min and washed with water. In the end, the cells were observed and photographed under inverted phase-contrast microscope at a magnification of 200×.

Series [10] deals with HY926 cells. As to the kind of experiment: MTT cytotoxicity assay, HY926 (non-tumor). It counts as cell-based.
From the text: as §1, §2

In series [11] the test system is caspase-3. The series can be described thus: Caspase-3 activity assay (Ac-DEVD-pNA cleavage) in Hela cells. It counts as cell-based, human. As to conditions: 5, 10, 20 μM, 48 h. The procedure:
Hela cells were seeded in dishes at a density of 5 × 10^5 cell per dish and the dishes were kept at 37 °C with 5% CO2 for 24 h. On the next day, various concentration of 8a (0, 5, 10, 20 μM) were added to the cells and cultured for 48 h. Pre-cooled PBS were added twice to wash the cells. After removal of the medium, ice-cold cell lysis buffer was added, and the cells were further incubated in an ice bath for 15 min, which contribute to the protein acquisition. The caspase-3 activity kit (Beyotime Institute of Biotechnology, Beijing, China) was used to determine the activity of caspase-3. A total of 50 μL cell lysates, 40 μL reaction buffer and 10 μL caspase-3 substrate (Ac-DEVDpNA) (2 mM) were added to 96-well plates. After 30 min of incubation, absorbance was measured at 405 nm, and samples were quantified with ELISA.

Where [12] appears, read: MTT, 72 h, mean ± SD (n = 3), non-tumor cells.

Regarding `COc1ccc(/C=C/C(=O)OC2CCC3(C)C(CCC4(C)C3C(=O)C=C3C5CC(C)(C(=O)O)CCC5(C)CCC34C)C2(C)C)c(OC)c1OC` (stereo not drawn) [Compound 8a, (2,3,4-Trimethoxy) cinnamoyl-3β-hydroxy-11-oxoolean-12-en-30-oic acid], the “signs of toxicity or deaths” value in [1] (maximum tolerated dose 3 g/kg oral (gavage), 2 weeks observation, mice) is “no signs of toxicity or deaths were observed”. Besides, the LD50 result in [1] (oral administration in mice) is “exceeded 3.0 g/kg”. Moreover, the apoptosis ratio stood at 15.7% in [2] (5 μM), 27.7% in series [2] (10 μM) and 60% in series [2] (20 μM). In addition, the “inhibition rate against Hela” value in series [3] (12.5 μM) is reported as 59.20%. In addition, the IC50 in series [3] (MTT, 72 h, mean ± SD (n = 3)) was 8.54 ± 1.44 µM; in series [4] (setting [12]), above 50 µM; in series [5], 21.5 ± 1.5 µM; in [7] (setting [12]) it was 31.8 ± 2.79 µM; in [8] it was 15 ± 1.26 µM; in series [10] (setting [12]), 27.7 ± 1.39 µM. The “inhibition rate against H9C2” value in series [4] (12.5 μM) was 3.56%. Also, the “nuclear changes by H33342 staining” value in series [6] is “the nuclear fragmentation, the cytoplasmic shrinkage, and the shape of apoptotic cells became irregular”. The “inhibition rate against MDCK” value in series [7] (12.5 μM) was 38.56%. The “morphological changes by Giemsa staining” value in series [9] was “cell loss, nuclei lysis, chromatin condensation and cytoplasmic shrinkage were aggravated”. Further, the “inhibition rate against HY926” value in [10] (12.5 μM) is given as 20.20%. In addition, the “caspase-3 activities in Hela cells” value in [11] was “enhanced in a concentration-dependent manner”.
